Data: PMC9403976, “Elucidating the path to Plasmodium prolyl-tRNA synthetase inhibitors that overcome halofuginone resistance” (Nature Communications, 2022)
Several values for one entry are separate records, joined by “and”; a condition that tells them apart may be missing. Identical values can stand only once. Like-named read-outs stand apart in the source and are kept apart here. Marks after values point to notes of the source that are not given here.

How the values were obtained:
P. falciparum Dd2-2D4 = test: P. falciparum asexual blood stage (ABS) growth assay, SYBR Green, 72 h, wild-type parasites; format: cell-based, Plasmodium falciparum
[1] = tested on: halofuginone-induced P. falciparum (elevated proline homeostasis); test: P. falciparum ABS growth assay, SYBR Green, 72 h, halofuginone-induced parasites; format: cell-based, Plasmodium falciparum
Procedure, shortened: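 Dd2-derived P. falciparum lines (HFGR-I, halofuginone-induced) at 1% parasitemia and 1% hematocrit in RPMI + 0.5% Albumax were exposed to compounds in triplicate dose-response for 72 h. Growth was read as SYBR Green 1 fluorescence, with 10 μM dihydroartemisinin as kill control and compound-free wells as growth control.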

[2] = tested on: HFGR-I P. falciparum (elevated proline homeostasis and PfcProRS^L482H); test: P. falciparum ABS growth assay, SYBR Green, 72 h, HFGR-I parasites; format: cell-based, Plasmodium falciparum
From the text: Parasites were maintained under standard culture conditions as described previously[56],[57]. […] The P. falciparum Dd2 cell lines used in this study (Dd2-2D4, halofuginone-induced, and HFGR-I) have previously undergone whole genome sequencing in our labs. They were also routinely assayed and EC50 values determined using the ABS growth assay (see below) with a panel of standard antimalarial compounds, including halofuginone which has differential activity for the three Dd2 lines used in these experiments. Data were cross-referenced for consistency with literature reported values and data previously acquired in the lab.
This assay was performed as previously described. In short, P. falciparum erythrocytic-stage parasites at 1% parasitemia and 1% hematocrit in RPMI + 0.5% Albumax were seeded at 40 μL/well in 384-well plates with test compounds in triplicate, dose-response format with 10 μM dihydroartemisinin as a kill-control and blank (no compound) wells as a growth-control. […] After 72 h, growth was quantified by measuring fluorescence (Molecular Devices SpectraMax iD5) following SYBR Green 1 staining. Data were analyzed in Excel and plotted in PRISM (V. 8.4.3–9.1.0, GraphPad).

PfcProRS = target: T1, PfcProRS (Plasmodium falciparum, UniProt Q8I5R7); format: binding; details: for Normalized response, dose-response replicates (SI Fig 14): replicates 1-3, listed as MAT334 (29)
T1 construct: made in house; host or cells: E. coli SoluBL-21

HsProRS = HsProRS (Homo sapiens, UniProt P07814); test: TR-FRET ligand displacement assay with tracer MAT379 (CoraFluor-1-Halo and anti-His6 antibody formats); format: binding; parameters: made in house; host or cells: E. coli SoluBL-21; details: 250 nM MAT379
[3] = 10 μM, compound had <50% inhibition

T1 sequence (Q8I5R7 249-746): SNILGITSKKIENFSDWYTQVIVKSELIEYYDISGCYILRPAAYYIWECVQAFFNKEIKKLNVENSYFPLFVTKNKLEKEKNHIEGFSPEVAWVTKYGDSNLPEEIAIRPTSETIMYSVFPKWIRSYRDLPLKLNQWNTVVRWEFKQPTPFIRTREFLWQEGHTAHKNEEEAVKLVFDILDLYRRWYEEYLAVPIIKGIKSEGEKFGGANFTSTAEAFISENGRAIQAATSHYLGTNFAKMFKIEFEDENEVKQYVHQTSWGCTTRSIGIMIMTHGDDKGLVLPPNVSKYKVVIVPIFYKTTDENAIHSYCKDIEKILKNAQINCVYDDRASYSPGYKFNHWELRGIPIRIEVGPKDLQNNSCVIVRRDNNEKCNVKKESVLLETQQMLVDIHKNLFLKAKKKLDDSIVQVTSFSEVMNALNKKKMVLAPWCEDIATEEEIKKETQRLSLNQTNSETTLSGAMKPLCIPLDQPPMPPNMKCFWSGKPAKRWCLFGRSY
Chain of HsProRS (P07814 996-1512): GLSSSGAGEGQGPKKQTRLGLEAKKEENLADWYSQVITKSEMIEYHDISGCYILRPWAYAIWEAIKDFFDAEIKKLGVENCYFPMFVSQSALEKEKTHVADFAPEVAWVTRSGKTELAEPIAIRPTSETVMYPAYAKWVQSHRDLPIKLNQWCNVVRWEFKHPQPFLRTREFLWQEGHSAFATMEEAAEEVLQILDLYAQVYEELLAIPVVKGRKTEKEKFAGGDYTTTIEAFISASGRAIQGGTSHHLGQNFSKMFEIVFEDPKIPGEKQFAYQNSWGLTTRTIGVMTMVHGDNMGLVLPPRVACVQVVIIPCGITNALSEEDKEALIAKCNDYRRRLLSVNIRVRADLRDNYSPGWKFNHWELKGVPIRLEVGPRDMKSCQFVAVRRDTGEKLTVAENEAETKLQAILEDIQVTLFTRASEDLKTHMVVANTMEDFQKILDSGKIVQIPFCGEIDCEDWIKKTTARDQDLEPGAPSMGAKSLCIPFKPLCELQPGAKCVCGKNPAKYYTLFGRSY

O=C(NC1Cc2ccccc2C1)c1nccnc1NC(=O)N1CCC(NC(=O)[C@@H]2CCCN2)CC1 [MAT334]
percent growth at 10 μM, Dd2 wt (P. falciparum Dd2-2D4; [3]): 76%^b
EC50 (P. falciparum Dd2-2D4; Plasmodium falciparum, wildtype (Dd2-2D4), bound given in μM, read-out: Dd2 EC50 wildtype (Dd2-2D4), bound): > 10 µM
% signal at 10 μM, wildtype (Dd2-2D4) (P. falciparum Dd2-2D4; wildtype (Dd2-2D4), 10 μM): 75.7%
percent growth at 10 μM, Dd2 Halofuginone-induced [1, 3]: 59%^b
EC50 ([1]; Plasmodium falciparum, DD2, halofuginone-induced, bound given in μM, read-out: Dd2 EC50 halofuginone-induced, bound): > 10 µM
% signal at 10 μM, halofuginone-induced ([1]; halofuginone-induced, 10 μM): 58.7%
fold decreased activity in halofuginone-induced and HFGR-I parasites ([1]; vs wild-type Dd2-2D4): 20-to-40 fold
percent growth at 10 μM, Dd2 HFGR-I [2, 3]: 66%^b
% signal at 10 μM, HFGR1 ([2]; HFGR1, 10 μM): 66.0%
EC50 ([2]; Plasmodium falciparum, DD2, HFGR1, bound given in μM, read-out: Dd2 EC50 HFGR1, bound): > 10 µM
Normalized response, dose-response replicates (SI Fig 14) (PfcProRS; Log[inhibitor] (M) -5.000): 2.08E-01 and 3.63E-01 and 3.19E-01
Normalized response, dose-response replicates (SI Fig 14) (PfcProRS; Log[inhibitor] (M) -5.301): 5.18E-01 and 3.74E-01 and 4.21E-01
Normalized response, dose-response replicates (SI Fig 14) (PfcProRS; Log[inhibitor] (M) -5.601): 6.67E-01 and 7.40E-01 and 6.08E-01
Normalized response, dose-response replicates (SI Fig 14) (PfcProRS; Log[inhibitor] (M) -5.904): 7.68E-01 and 7.75E-01 and 6.45E-01
Normalized response, dose-response replicates (SI Fig 14) (PfcProRS; Log[inhibitor] (M) -6.208): 8.81E-01 and 8.94E-01 and 8.19E-01
Normalized response, dose-response replicates (SI Fig 14) (PfcProRS; Log[inhibitor] (M) -6.509): 8.78E-01 and 9.77E-01 and 9.06E-01
Normalized response, dose-response replicates (SI Fig 14) (PfcProRS; Log[inhibitor] (M) -6.796): 9.44E-01 and 9.68E-01 and 8.61E-01
Normalized response, dose-response replicates (SI Fig 14) (PfcProRS; Log[inhibitor] (M) -7.108): 1.02E+00 and 1.01E+00 and 1.00E+00
Normalized response, dose-response replicates (SI Fig 14) (PfcProRS; Log[inhibitor] (M) -7.409): 9.75E-01 and 1.05E+00 and 9.17E-01
Normalized response, dose-response replicates (SI Fig 14) (PfcProRS; Log[inhibitor] (M) -7.710): 9.99E-01 and 1.04E+00 and 9.29E-01
Normalized response, dose-response replicates (SI Fig 14) (PfcProRS; Log[inhibitor] (M) -8.000): 9.48E-01 and 9.82E-01 and 1.03E+00
Normalized response, dose-response replicates (SI Fig 14) (PfcProRS; Log[inhibitor] (M) -8.301): 1.01E+00 and 1.09E+00 and 9.01E-01
Normalized response, dose-response replicates (SI Fig 14) (PfcProRS; Log[inhibitor] (M) -8.602): 8.97E-01 (2×) and 1.09E+00
Normalized response, dose-response replicates (SI Fig 14) (PfcProRS; Log[inhibitor] (M) -9.000): 9.02E-01 and 9.67E-01 and 1.03E+00
Normalized response, dose-response replicates (SI Fig 14) (PfcProRS; Log[inhibitor] (M) -9.301): 8.06E-01 and 9.62E-01 and 9.06E-01
PfcProRS -- best Kd (PfcProRS; SI Fig 16a, values on -log scale): 6.180
Kd (HsProRS; HsProRS (KD [nM]) + proline, 100 μM proline): 2130 nM
Kd (HsProRS; HsProRS (KD [nM]) −, absence of substrates): 2110 nM
